Experimental data: patent US7462625B2, “Gonadotropin-releasing hormone receptor antagonists and methods relating thereto” (Neurocrine Biosciences, Inc., priority 2000, dated 2008)
Structures can show the parent of a compound that is named as a salt.

What follows are molecules tested against T1, GnRH receptor (Homo sapiens, UniProt P30968) (assay: GnRH receptor membrane binding assay). Conditions: not given.
T1 construct: expressed in transfected cells
T1 sequence (P30968 1-328): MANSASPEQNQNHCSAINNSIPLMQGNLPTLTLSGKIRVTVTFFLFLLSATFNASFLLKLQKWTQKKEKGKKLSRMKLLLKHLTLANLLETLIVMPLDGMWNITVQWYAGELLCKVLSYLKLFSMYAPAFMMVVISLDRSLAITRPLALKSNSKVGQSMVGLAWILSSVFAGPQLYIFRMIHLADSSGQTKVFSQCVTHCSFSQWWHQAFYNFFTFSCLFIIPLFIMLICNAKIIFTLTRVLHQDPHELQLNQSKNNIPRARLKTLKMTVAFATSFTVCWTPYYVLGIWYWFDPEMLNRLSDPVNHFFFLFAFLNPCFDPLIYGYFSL
Experimental: Radio-Iodination of GnRH Peptide
The GnRH analog is labeled by the chloramine-T method. […] The reaction is stopped by the addition of 60 μg sodium metabisulfite and the free iodine is removed by passing the iodinated mixture through a C-8 Sep-Pak cartridge (Millipore Corp., Milford, Mass.). The peptide is eluted with a small volume of 80% acetonitrile/water. […] The purified radioactive peptide is stored in 0.1% BSA/20% acetonitrile/0.1% TFA at −80° C. and can be used for up to 4 weeks.
GnRH Receptor Membrane Binding Assay
Cells stably, or transiently, transfected with GnRH receptor expression vectors are harvested, resuspended in 5% sucrose and homogenized using a polytron homogenizer (2×15 sec). Nucleii are removed by centrifugation (3000×g for 5 min.), and the supernatant centrifuged (20,000×g for 30 min, 4° C.) to collect the membrane fraction. The final membrane preparation is resuspended in binding buffer (10 mM Hepes (pH 7.5), 150 mM NaCl, and 0.1% BSA) and stored at −70° C. Binding reactions are performed in a Millipore MultiScreen 96-well filtration plate assembly with polyethylenimine coated GF/C membranes. […] The reaction is terminated after 90 minutes by application of vacuum and washing (2×) with phosphate buffered saline. Bound radioactivity is measured using 96-well scintillation counting (Packard Topcount) or by removing the filters from the plate and direct gamma counting. Ki values are calculated from competition binding data using non-linear least squares regression using the Prism software package (GraphPad Software).

Ki, < 100 nM:
Cc1cccc(-c2c(C)n(Cc3c(F)cccc3F)c(=O)n(C[C@H](N)c3ccccc3)c2=O)c1F [8-17]

Same assay, conditions: GnRH receptor membrane binding assay, [125I]-labeled GnRH peptide; read-out: Ki

Ki, < 100 nM:
Cc1c(-c2ccccc2F)c(=O)n(CCNCCN(C)C)c(=O)n1Cc1c(F)cccc1F [9-227]
CCN(CC)CCN(C)CCn1c(=O)c(-c2ccc3c(c2)OCO3)c(C)n(Cc2c(F)cccc2F)c1=O [9-249]
Cc1c(-c2ccc(NC(=O)OCC(C)C)cc2)c(=O)n(CCN(C)CCc2ccccn2)c(=O)n1Cc1c(F)cccc1F [6-8]
Cc1c(-c2ccc(Oc3ccccc3)cc2)c(=O)n(CCNCCC(c2ccccc2)c2ccccc2)c(=O)n1Cc1c(F)cccc1F [9-140]
COc1ccc(CCNCCn2c(=O)c(-c3ccc4c(c3)OCO4)c(C)n(Cc3c(F)cccc3F)c2=O)cc1OC [9-244]
COc1cccc(-c2c(C)n(Cc3c(F)cccc3F)c(=O)n(CC(C)NC(C)C(C)C)c2=O)c1F (centres unmarked) [9-399]
Cc1c(-c2ccccc2F)c(=O)n(CCN2CCN(c3cccc(Cl)c3)CC2)c(=O)n1Cc1c(F)cccc1F [9-56]
Cc1c(-c2csc(-c3ccc(F)cc3)n2)c(=O)n(C[C@H](N)c2ccccc2)c(=O)n1Cc1c(F)cccc1F [12-24]
COc1cccc(-c2c(C)n(Cc3c(F)cccc3F)c(=O)n(CC(C)NCc3ccccn3)c2=O)c1 (centres unmarked) [9-109]
COc1cccc(-c2c(C)n(Cc3c(F)cccc3F)c(=O)n(CCN(C)Cc3ccccn3)c2=O)c1 [1-3]
CCC(CC(C)C)N[C@@H](C)Cn1c(=O)c(-c2cccc(OC)c2F)c(C)n(Cc2c(F)cccc2F)c1=O (some centres unmarked) [9-688]
CCN(CC)CCn1c(=O)c(-c2ccc(Oc3ccccc3)cc2)c(C)n(Cc2c(F)cccc2F)c1=O [9-224]
Cc1c(-c2ccccc2F)c(=O)n(C[C@H](N)c2ccccc2)c(=O)n1Cc1c(F)cccc1F [10-1, 6-Methyl-5-(2-fluorophenyl)-3-[2(R)-amino-2-phenylethyl]-1-(2,6-difluorobenzyl)uracil trifluoroacetic acid salt]
Cc1c(-c2ccc3c(c2)OCO3)c(=O)n(CCN(C)CCc2ccccn2)c(=O)n1Cc1c(F)cccc1F [3-1]
Cc1ccc(N2CCN(CCn3c(=O)c(-c4ccc5c(c4)OCCO5)c(C)n(Cc4c(F)cccc4F)c3=O)CC2)cc1 [9-281]
Cc1c(-c2ccc(Oc3ccccc3)cc2)c(=O)n(CCN2CCN(Cc3ccc4c(c3)OCO4)CC2)c(=O)n1Cc1c(F)cccc1F [9-35]
Cc1c(-c2ccc3c(c2)OCO3)c(=O)n(CCNCc2cc(C(F)(F)F)cc(C(F)(F)F)c2)c(=O)n1Cc1c(F)cccc1F [9-63]
Cc1c(-c2ccc3c(c2)OCO3)c(=O)n(CCNCC(F)(F)F)c(=O)n1Cc1c(F)cccc1F [9-164]
Cc1c(-c2ccc3c(c2)OCO3)c(=O)n(C[C@H](CO)N(CC2CC2)CC2CC2)c(=O)n1Cc1c(F)cccc1F [9-745]
Cc1c(-c2ccc3c(c2)OCCO3)c(=O)n(CCN(C)CCc2ccccn2)c(=O)n1Cc1c(F)cccc1F [6-3]
COc1cccc(-c2c(C)n(Cc3c(F)cccc3F)c(=O)n([C@H](C)CNCc3ccccn3)c2=O)c1F [9-512]
COc1cccc(-c2c(C)n(Cc3c(F)cccc3F)c(=O)n(CC(C)NCC3CCCCC3)c2=O)c1F (centres unmarked) [9-589]
COc1cccc(-c2c(C)n(Cc3c(F)cccc3F)c(=O)n(CCN3CCC(NC(=O)C(F)(F)F)C3)c2=O)c1 (centres unmarked) [7-3]
COc1cccc(-c2c(C)n(Cc3c(F)cccc3F)c(=O)n([C@H](C)CNCc3cccc(F)c3)c2=O)c1 [9-448]
Cc1c(-c2ccc3c(c2)OCO3)c(=O)n(CCNC2CCC(C)CC2)c(=O)n1Cc1c(F)cccc1F (centres unmarked) [9-320]
COc1cccc(-c2c(C)n(Cc3c(F)cccc3F)c(=O)n(CCN3CCC[C@@H]3CO)c2=O)c1 [9-4]
CCN[C@H](Cn1c(=O)c(-c2cccc(OC)c2F)c(C)n(Cc2c(F)cccc2F)c1=O)C(C)C [9-714]
COc1cccc(-c2c(C)n(Cc3c(F)cccc3F)c(=O)n(C[C@H](C)N(C)Cc3ccccn3)c2=O)c1F [9-409]
CCCN1CCN(CCn2c(=O)c(-c3ccccc3F)c(C)n(Cc3c(F)cccc3F)c2=O)CC1 [9-240]
CCC(C)C(C)CN[C@@H](C)Cn1c(=O)c(-c2cccc(OC)c2F)c(C)n(Cc2c(F)cccc2F)c1=O (some centres unmarked) [9-678]
COc1cccc(-c2c(C)n(Cc3c(F)cccc3F)c(=O)n(CC(C)NCc3cc(C)c(C)o3)c2=O)c1F (centres unmarked) [9-595]
